According to ChEMBL document CHEMBL5126667, “Tigliane-Type Diterpene Esters from the Fruits of Shirakiopsis indica and Their Anti-HIV Activity” (J Nat Prod, 2022):

Assays:
[1] = tested on: Human immunodeficiency virus; assay: Antiviral activity against HIV NL4-3 infected in MT-4 cells assessed as viral replication measured after 4 days by p24-ELISA; format: functional, organism-based; conditions: Human immunodeficiency virus 1, NL4-3, MT4, 96 h
[2] = Therapeutic index, ratio of cytotoxicity against human MT4 cells to antiviral activity against HIV NL4-3; format: toxicity, cell-based; conditions: read-out: TI

Row | Compound | EC50 [1] [nM] | selectivity ratio [2]
1 | Cc1cn([C@H]2C[C@H](N=[N+]=[N-])[C@@H](CO)O2)c(=O)[nH]c1=O [ZIDOVUDINE] | 20 | > 22
2 | CNc1ccccc1C(=O)O[C@@H]1[C@@H](C)[C@]2(O)[C@@H]3C=C(C)C(=O)[C@H]3CC(CO)=C[C@H]2[C@@H]2C(C)(C)[C@]12OC(C)=O [SAPINTOXIN A] | 7.4 | 1100
3 | CNc1ccccc1C(=O)O[C@@H]1[C@@H](C)[C@@]2(O)[C@@H](C=C(CO)C[C@]3(O)C(=O)C(C)=C[C@@H]23)[C@@H]2C(C)(C)[C@]12OC(C)=O | 44 | 5290
4 | CCC/C=C/C=C/C=C\C(=O)O[C@@H]1[C@@H](C)[C@]2(O)[C@@H]3C=C(C)C(=O)[C@H]3CC(CO)=C[C@H]2[C@@H]2C(C)(C)[C@]12OC(C)=O | 130 | 161
